Experimental data as given in paper PMC7925462, “A synthetic peptide as an allosteric inhibitor of human arginase I and II” (Molecular Biology Reports, 2021).
Where two headings read alike, the source gives them in different places. Ends that are not written are not given here.

Columns and labels:
[1] = target: T1, human arginase I (wild-type hargI, His6-tagged) (Homo sapiens, UniProt P05089); experiment: MST binding assay, hargI
T1 construct: TEV protease site and linker (N); made in house; host or cells: E. coli BL21 (DE3) RIL
T1 sequence (P05089 with tags, fused parts or gaps): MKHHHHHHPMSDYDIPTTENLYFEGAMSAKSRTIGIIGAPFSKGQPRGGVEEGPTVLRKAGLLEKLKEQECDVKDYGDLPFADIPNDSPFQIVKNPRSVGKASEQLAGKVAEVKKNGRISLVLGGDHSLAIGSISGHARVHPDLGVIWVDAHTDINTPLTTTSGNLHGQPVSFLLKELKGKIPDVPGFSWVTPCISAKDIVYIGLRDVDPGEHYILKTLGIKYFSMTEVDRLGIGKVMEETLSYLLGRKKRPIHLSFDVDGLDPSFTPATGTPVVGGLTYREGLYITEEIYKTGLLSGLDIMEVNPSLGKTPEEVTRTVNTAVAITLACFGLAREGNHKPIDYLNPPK
Experimental: Microscale thermophoresis (MST)
MST measurements were performed on a Monolith NT.115 instrument (Nanotemper Technologies, GmbH). Purified His6-tagged hargI sample was labeled with the Monolith His-Tag Labeling Kit RED-tris-NTA (MO-L008) according to the protocol (Nanotemper Technologies, GmbH). All measurements were performed in triplicate in MST buffer (25 mM Tris-HCl pH 7.5, 125 mM NaCl, 1% Glycerol and 1 mM BME, 0.05% Tween-20) using standard capillaries (K002, Nanotemper Technologies, GmbH). Labeled hargI was used at a final concentration of 50 nM according to the manufacturer’s recommendations. All measurements were performed at 60% LED excitation power and 40% MST power, Laser-On time was 30 s, Laser-Off time 5 s. The peptide REGNH was titrated in 1:1 dilution starting at 2.82 μM. All binding reactions were incubated for 10 min at room temperature followed by centrifugation at 20,000 g before loading into the capillaries.
The ability of the synthetic peptide analogue (REGNH) to bind to wild-type hargI and II was examined using Microscale Thermophoresis (MST) (Nanotemper, GmbH). […] After 10 min incubation at room temperature the dose-response MST curve was measured, which yielded a clear binding curve with determined dissociation constant of 177 ± 50 μM for hargI, and 196 ± 25 μM for hargII (Fig. 2).

human arginase I (hargI) [2] = target: T2, human arginase I (hargI) (Homo sapiens, UniProt P05089); experiment: Dose-response of ABH on hargI in presence/absence of REGNH, L-arginine metabolism; format: biochemical
T2 construct: TEV protease site and linker (N); made in house; host or cells: E. coli BL21 (DE3) RIL
T2 sequence (P05089 with tags, fused parts or gaps): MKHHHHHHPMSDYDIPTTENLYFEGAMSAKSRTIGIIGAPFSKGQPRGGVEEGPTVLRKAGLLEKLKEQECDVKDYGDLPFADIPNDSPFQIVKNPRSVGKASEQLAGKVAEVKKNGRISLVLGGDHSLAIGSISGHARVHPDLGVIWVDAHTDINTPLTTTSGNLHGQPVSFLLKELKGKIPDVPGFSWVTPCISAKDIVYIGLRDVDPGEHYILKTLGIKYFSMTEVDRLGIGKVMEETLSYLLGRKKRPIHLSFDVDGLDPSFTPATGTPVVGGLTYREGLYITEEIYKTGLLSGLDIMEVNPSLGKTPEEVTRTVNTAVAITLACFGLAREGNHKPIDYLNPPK

[3] = test system: Arg308Ala mutant of human arginase I; conditions: low concentrations of guanidinium chloride, ref [17], cited from earlier work
From the text: A promising avenue in arginase inhibitors research is a structural feature that shared by all mammalian arginases – the S-shaped motif at the C-terminal. The functional significance of this motif is that it accounts for 54% of intersubunit contacts. In Human Arginase I (hargI) the S-shaped motif is comprised by residues 304–322, where Arg308 is thought to play the major role, as it forms a salt bridge with Glu262. In rat liver arginase I, Arg308 also forms an intermonomer salt bridge with Asp204 from an adjacent subunit. The importance of Arg308 is supported by the di ... || The aim of the described research is to examine the effect of the peptide analogue REGNH (residue 308–312), which comprises part of the S-shape motif from the C-terminal (residue 308–322) on hargI. A previous study has shown that the C terminal tail plays a critical role in retaining trimeric protein assembly, as well as in the cooperative response of arginase in L-arginine metabolism.

[4] = test system: wild-type and truncated (terminating at Arg308 or Ala308) arginase I; conditions: wild-type and truncated species terminating at Arg308 or Ala308, even at higher concentrations; ref [17]; cited from earlier work
From the text: A promising avenue in arginase inhibitors research is a structural feature that shared by all mammalian arginases – the S-shaped motif at the C-terminal. The functional significance of this motif is that it accounts for 54% of intersubunit contacts. In Human Arginase I (hargI) the S-shaped motif is comprised by residues 304–322, where Arg308 is thought to play the major role, as it forms a salt bridge with Glu262. In rat liver arginase I, Arg308 also forms an intermonomer salt bridge with Asp204 from an adjacent subunit. The importance of Arg308 is supported by the di ...

human arginase I (hargI) [5] = target: T2, human arginase I (hargI); experiment: Enzymatic assay, L-arginine hydrolysis by hargI, colorimetric urea; format: biochemical; conditions: called preliminary data, read-out: IC50 (abstract)
Experimental: (§1) The kinetic properties of hargI and II were tested according to previously reported methods with minor modifications. The Arginases activity was assessed by colorimetric measurement of produced urea. The assays were performed in 96-well plates (Greiner) using Assay buffer [100 mM Na-phosphate pH 7.4, 130 mM NaCl]. Final volume of each reaction was 60 μl, the final concentration of hargI and hargII was 50 nM in each well. Samples containing no hargI or hargII were used as negative control. The peptide inhibitor was added based on experiment setting, dose ranging from 20 mM to 9.8 μM. Each sample was pre-incubated for 30 min in a 37 °C shaking incubator (100 rpm) and the reactions were started by adding concentrated substrate buffer [Assay buffer supplemented with 100 mM L-arginine, 500 mM Glycine and 1.25 mM MnCl2]. Reactions were performed in a shaking incubator at 37 °C and quenched after 1 h using a Stop mix. The Stop mix consisted of two volumes of freshly prepared solution A [Antipyrine/ H2SO4 reagent: 5 g/L of antipyrine(1,5-dimethyl-2-phenyl-3-pyrazolone) in 50%(v/v) sulfuric acid] and one volume solution B [Oxime reagent: 0.8 g 2,3-Butanedione monoxime in 100 ml of 5%(v/v) acetic acid]. […] The color turns to brown and changes in optical density (OD) at 466 nm reflecting the production of urea were quantified using the Synergy H1 Hybrid Reader (BioTek).

[6] = target: T3, human arginase II (hargII) (Homo sapiens, UniProt P78540); experiment: Enzymatic assay, L-arginine hydrolysis by hargII, colorimetric urea; format: biochemical; conditions: called preliminary data, read-out: IC50 (abstract)
T3 construct: The human arginase II (aa23-354, 38.3kD) fused to a His6-tag at the N-terminal; purchased USBiological Life Science, Salem, USA
T3 sequence (P78540 23-354): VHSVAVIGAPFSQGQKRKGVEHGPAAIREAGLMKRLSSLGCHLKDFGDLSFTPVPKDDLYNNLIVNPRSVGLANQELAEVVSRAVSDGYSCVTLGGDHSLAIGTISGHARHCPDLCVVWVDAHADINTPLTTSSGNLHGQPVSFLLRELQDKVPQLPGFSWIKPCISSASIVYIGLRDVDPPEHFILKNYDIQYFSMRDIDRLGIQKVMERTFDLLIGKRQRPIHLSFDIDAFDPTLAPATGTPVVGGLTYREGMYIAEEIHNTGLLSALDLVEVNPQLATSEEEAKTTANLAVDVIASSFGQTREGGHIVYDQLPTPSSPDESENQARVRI
Experimental: The human arginase II (aa23-354, 38.3kD) fused to a His6-tag at the N-terminal was purchased and supplied as a liquid aliquot (20 mM Tris-HCl, pH 8.0, 10% (v/v) glycerol) at −20 °C (USBiological Life Science, Salem, USA). This stock was thaw on ice, followed by high speed centrifuging before diluting to certain concentration for activity assay.
as §1, with “MnCl2].” for “MnCl2]. Reactions were performed in a shaking incubator at 37 °C and quenched after 1 h using a Stop mix. The Stop mix consisted of two volumes of freshly prepared solution A [Antipyrine/ H2SO4 reagent: 5 g/L of antipyrine(1,5-dimethyl-2-phenyl-3-pyrazolone) in 50%(v/v) sulfuric acid] and one volume solution B [Oxime reagent: 0.8 g 2,3-Butanedione monoxime in 100 ml of 5%(v/v) acetic acid].”

human arginase I (hargI) [7] = target: T2, human arginase I (hargI); experiment: Kinetic assay of L-arginine metabolism in absence/presence of peptide; format: biochemical; conditions: 1 mM peptide REGNH, 40 mM L-arginine
Experimental: as §1, with “(BioTek). […]” for “(BioTek).”

human arginase I [8] = target: T4, human arginase I (human, UniProt P05089 1-322, RED-tris-NTA dye on the His6-tag (Monolith His-Tag Labeling Kit RED-tris-NTA) in the MST assay); experiment: cell-based or functional assay
T4 sequence (looked up): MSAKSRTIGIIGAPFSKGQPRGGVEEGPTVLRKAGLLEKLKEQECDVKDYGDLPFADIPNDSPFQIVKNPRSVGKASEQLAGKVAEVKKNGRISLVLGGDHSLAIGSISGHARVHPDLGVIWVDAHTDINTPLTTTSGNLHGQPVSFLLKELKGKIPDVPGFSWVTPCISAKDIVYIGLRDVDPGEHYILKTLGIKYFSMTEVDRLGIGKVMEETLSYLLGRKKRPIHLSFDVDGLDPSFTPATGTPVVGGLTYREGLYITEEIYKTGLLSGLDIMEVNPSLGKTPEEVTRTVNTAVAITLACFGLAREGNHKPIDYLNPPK

[9] = target: T5, human arginase II (aa23-354, 38.3kD) (human, UniProt P78540 23-354, RED-tris-NTA dye labeled in the MST assay); experiment: cell-based or functional assay
T5 sequence (looked up): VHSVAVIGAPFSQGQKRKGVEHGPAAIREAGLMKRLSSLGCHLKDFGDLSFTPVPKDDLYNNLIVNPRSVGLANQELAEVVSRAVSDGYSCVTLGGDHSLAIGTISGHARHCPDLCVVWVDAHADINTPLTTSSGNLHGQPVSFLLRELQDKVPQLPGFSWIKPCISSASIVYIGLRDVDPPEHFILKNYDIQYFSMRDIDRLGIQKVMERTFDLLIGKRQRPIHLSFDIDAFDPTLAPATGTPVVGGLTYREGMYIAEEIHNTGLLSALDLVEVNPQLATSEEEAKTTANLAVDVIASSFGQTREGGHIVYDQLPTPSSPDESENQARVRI

human arginase I [10] = target: T4, human arginase I; experiment: MST; Monolith NT.115; His6-tagged arginase labeled with RED-tris-NTA at 50 nM, peptide REGNH titrated in 1:1 dilution; 25 mM Tris-HCl pH 7.5, 125 mM NaCl, 1% glycerol, 1 mM BME, 0.05% Tween-20; 10 min incubation at room temperature; triplicate; conditions: both partners purified
[11] = target: T5, human arginase II (aa23-354, 38.3kD); experiment: as above; conditions: both partners purified

With N[C@@H](CCCCB(O)O)C(=O)O [ABH, 2-(S)-amino-6-boronohexanoic acid] the Kd ([1]; MST, ABH to hargI, MST buffer pH 7.5) was about 600 nM, the “binding to hargI” value ([1]; dose-dependent MST assay) was “strong binding” and the IC50 (human arginase I (hargI) [2]; ABH on hargI, printed in parentheses after 'those of the apo-enzyme', the comparison is with hargI + 1 mM REGNH) was 1000 ± 30 nM. The “inhibition of hargI by ABH in presence of REGNH compared with apo-enzyme” value (human arginase I (hargI) [2]; hargI supplemented with 1 mM peptide REGNH) was “comparable inhibition constants to those of the apo-enzyme”.

In the case of Cl.N=C(N)N [guanidinium chloride], the “activity of Arg308Ala mutant with Gdn+” value [3] is listed as “significantly increased activity”, the “trimeric assembly and substrate cooperativity of Arg308Ala mutant with Gdn+” value [3] is listed as “restored the trimeric assembly and substrate cooperativity” and the “activity of Arg308Ala mutant with Gdn+” value ([3]; listed as Gdn^+) is listed as “significantly increased”. For the same molecule, the “response of wild-type and truncated species to Gdn+” value [4] was “not responsive”.

For REGNH [REGNH], the IC50 (human arginase I (hargI) [5]) was 2.4 ± 0.3 mM, the IC50 [6] was 1.8 ± 0.1 mM and the “lowering of activity with respect to apo-enzyme” value (human arginase I (hargI) [7]) was “≈ 15%”.

B1: synthetic peptide REGNH (peptide)
peptide: REGNH
notes: residues 308-312 of human arginase I, part of the S-shape motif of the C-terminal; Nothing is said of modified ends; also called peptide analogue; REGNH C-terminus analogue peptide; source: synthetic peptide; bought: Biomatik and TopPeptides, Shanghai
With B1 the “inhibition of hargI enzymatic activity (colorimetric measurement of urea from L-arginine), peptide 9.8 μM to 20 mM; IC50” value (human arginase I [8]) was 2.4 mM, the “inhibition of hargII enzymatic activity (colorimetric measurement of urea from L-arginine), peptide 9.8 μM to 20 mM; IC50” value [9] was 1.8 mM and the Kd (human arginase I [10]) was 177 ± 50 µM. It also gave a Kd [11] of 196 ± 25 µM.
